Assays:
[1] = Solubility of indibulin in solvents; assay type: physicochemical
[2] = Bioavailability on peroral administration in customary presentation forms; assay type: in vivo
tubulin = conditions: cited from earlier work

O=C(Nc1ccncc1)C(=O)c1cn(Cc2ccc(Cl)cc2)c2ccccc12 [indibulin, N-(pyridin-4-yl)-[1-(4-chlorobenzyl)indol-3-yl]-glyoxylamide]
solubility in various organic solvents ([1]; dimethylformamide, dimethyl sulfoxide and N-methylpyrrolidone): Adequate solubility | solubility in highly concentrated organic acids ([1]; greater than 50% by weight, e.g. acetic acid or lactic acid): relatively good solvents | solubility in hydrophilic solvents ([1]; water, methanol, ethanol and isopropanol): virtually insoluble | bioavailability ([2]; micronized active compound processed to oral presentation forms (suspensions, capsules or tablets)): comparatively low | bioavailability ([2]; perorally in customary presentation forms, e.g. powder, granule, tablet or capsule): low | in vitro and in vivo activity as a tubulin inhibitor (tubulin): significant
